Source: US20040048283A1, “Novel method for screening bacterial transcription modulators” (priority 2000, published 2004)
“Also recorded” adds a separate entry of the source.

Experiments:
[1] = target: T1, bond between the core enzyme of the RNA polymerase and the protein σ^70 (Escherichia coli, UniProt P0A7Z4+P0A8T7+P0A8V2); assay: sigma70-RNA polymerase bond test (ELISA-type complexation test); type: binding, E. coli
T1 construct: made in house
Protocol: Thus, the different compounds tested are incubated in the presence of the core enzyme in a microassay dish on which the protein σ^70 is adsorbed, each well of the plate containing 1 μM of σ^70 during the adsorption phase.
The sigma70 proteins and the RNA polymerase of E. coli are expressed and purified under standard conditions (Burgess et al., Biochemistry, 1975, October 21; 14(21): 4634-8; Burgess R., Methods Enzymol 1996; 273: 145-9). The sigma70 protein is stored at −80° C. in (20 mM tris HCl pH 8; 5 M guanidine chloride; 10 mM β-mercaptoethanol; 50% glycerol) at a concentration of 100 μM. The core RNA polymerase is stored at −80° C. in (20 mM tris HCl pH 8, 100 mM KCl, 10 mM β-mercaptoethanol, 50% glycerol) at a concentration of 1 μM. The antipolymerase monoclonal antibody was obtained and purified by standard techniques (Short Protocols in Molecular Biology 2nd edition, John Wiley & Its) then chemically coupled to activated peroxidase (Boehringer Mannheim Biochemica ref. 1428861) according to the supplier's recommendations.
The test is based on the adsorption of sigma70 on an ELISA plate for 12 hours at 4° C. (6 pmoles of protein diluted in 100 μl of PBS per well, on Nunc-immuno plates, Maxisorp.). The protein dilutions and the buffers were optimized in order to reduce the non-specific bond of the RNA polymerase. After washing the plate with PBS 0.1% tween20, the plate is saturated with 200 μl of PBS 0.1% tween20, 1% BSA then incubated for 1 hour at ambient temperature with the RNA polymerase of E. coli (0.25 pmole of core RNA polymerase in 100 μl of PBS 0.1% tween 20, 1% BSA, 10 mM MgCl2) in the presence or in the absence of an optional inhibitor. […] The sigma70-RNA polymerase antibody complex is detected with a substrate of peroxidase, O-phenylenediamine, or another appropriate medium. […]
After three washings with 0.1% PBS-T (v/v), the peroxidase substrate is added (OPD, Biorad). The reaction takes place for 2 to 3 minutes in darkness then an absorbance measurement is carried out at 490 nm, after stopping the reaction with 50 μl of 4N H2SO4. […]

[2] = tested on: E. coli K12; assay: inhibition of growth in solid medium (inhibition diameter); type: cell-based; settings: for diameter of inhibition, K12: solid medium
Protocol: (§1) A preculture of the strains E. coli K12, S. aureus and S. epidermis in Mueller Hinton Broth medium (Mueller and Hinton, 1941) is carried out at 37° C., until an optical density of 0.1 at 650 nm is obtained. 100 μl of the preculture is added to 10 ml of the medium: 0.1% agarose, 10 mM sodium phosphate pH 7.4; 0.3 mg/ml trypcase-soy; 100 mM NaCl.
(§2) The mixture is poured into a […] Petri dish. Wells are made in the gelose and 5 μl of the solutions to be tested, containing the screened products, are placed in each well. The dishes are left at ambient temperature for 2 hours, then 10 ml of the medium (1% agarose; 10 mM sodium phosphate—pH 7.4-6% trypcase-soy) are poured into the Petri dish forming an overlay. After solidification, the dishes are incubated overnight at 37° C.
(§3) The antibacterial activity is evaluated by measuring the diameter of the bacterial growth inhibition of the zone at the centre of which the product was placed.

[3] = tested on: S aureus; assay: as above; type: cell-based; settings: for diameter of inhibition, S aureus: solid medium
Protocol: as §1, §2, §3

[4] = tested on: S epidermidis; assay: as above; type: cell-based
Protocol: as §1, §2, §3

[5] = target: T2, bond between the RNA polymerase and the protein NusA (Escherichia coli, UniProt P0A7Z4+P0A8T7+P0A8V2); assay: NusA-RNA polymerase bond test (ELISA-type complexation test); type: binding, E. coli
T2 construct: polyhistidine (C); made in house; host or cells: NusA: BL21 lambda DE3 E. coli cells (printed 'BL211amdaDE3'), pet21-type vector
Protocol: More precisely, the different compounds tested (from the family of 5,988,031) are incubated in the presence of core enzyme in a microassay dish on which the protein NusA is adsorbed at a concentration equal to 20 μg/ml.
The gene coding for the protein NusA and comprising a C-terminal polyhistidine tag was cloned in a pet21-type vector. After transfection in BL211amdaDE3 cells, the cells are cultured in LB medium at 37° C. under vigorous stirring. The production of protein is induced by the addition of 1 mM IPTG. After 3 hours' culture, the cells are recovered by centrifugation and lysed according to (Burgess et al., Biochemistry, 1975 October 21; 14(21): 4634-8). After centrifugation, the supernatant is passed over an Ni NTA agarose column (Quiagen) according to the supplier's recommendations. The protein NusA is stored at −80° C. in (20 mM tris HCl pH 8; 5 M guanidine chloride; 10 mM β-mercaptoethanol; 50% glycerol) at a concentration of 100 μM.
The test is based on the adsorption of NusA on an ELISA plate for 12 hours at 4° C. (6 pmoles of protein diluted in 100 μl of PBS per well on Nunc-immuno plates, Maxisorp.). The dilutions of protein and the buffers were optimized in order to reduce the non-specific bond of the RNA polymerase. […] The sigma70-RNA polymerase-antibody complex is detected with a substrate of peroxidase, O-phenylenediamine, or another appropriate medium. […]

[6] = target: bond between an antibody, for example 11D11, and the RNA polymerase (Escherichia coli, UniProt P0A7Z4+P0A8T7+P0A8V2); assay: specificity: antibody-RNA polymerase bond; type: binding, E. coli
[7] = target: assembly of the α, β and β′ subunits (Escherichia coli, UniProt P0A7Z4+P0A8T7+P0A8V2); assay: specificity: assembly of RNA polymerase subunits; type: binding, E. coli
[8] = tested on: E. coli TG1 cells; assay: inhibition of growth in microassay dish; type: cell-based; settings: FIG. 4; optical density at 650 nm after 12 hours at 37° C.
Protocol: FIG. 4 corresponds to the inhibition of the growth of E. coli TG1 cells by the abovementioned compound 5,988,031. This figure represents the optical density measured at 650 nm (y-axis) with reference to the concentration of the compound 5,988,031 in μg/ml (x-axis).
The E. coli TG1 cells, diluted according to the protocol described hereafter in the experimental part, are incubated with increasing concentrations of the compound 5,988,031. The growth of the bacteria is measured at 650 nm after incubation for 12 hours at 37° C. under stirring in a microassay dish.
The various compounds isolated are tested for their TG1 E. coli bacteria growth-inhibiting properties. Cells in stationary phase are diluted to {fraction (1/10,000)} in LB medium (tryptone 10 g; yeast extract 5 g; NaCl 5 g) and are transfected in a microassay dish (200 μl/well). The molecules are added to 10% DMSO, at a final concentration of 100 mg/ml. […] After incubation overnight at 37° C. under stirring, the optical density of each well at 650 nm is measured.

[9] = tested on: M. Luteus; assay: antibiotic activity on other strains tested; type: cell-based; settings: concentration not given
[10] = other strains tested, concentration not given

T1 sequence (P0A8T7 whole entry): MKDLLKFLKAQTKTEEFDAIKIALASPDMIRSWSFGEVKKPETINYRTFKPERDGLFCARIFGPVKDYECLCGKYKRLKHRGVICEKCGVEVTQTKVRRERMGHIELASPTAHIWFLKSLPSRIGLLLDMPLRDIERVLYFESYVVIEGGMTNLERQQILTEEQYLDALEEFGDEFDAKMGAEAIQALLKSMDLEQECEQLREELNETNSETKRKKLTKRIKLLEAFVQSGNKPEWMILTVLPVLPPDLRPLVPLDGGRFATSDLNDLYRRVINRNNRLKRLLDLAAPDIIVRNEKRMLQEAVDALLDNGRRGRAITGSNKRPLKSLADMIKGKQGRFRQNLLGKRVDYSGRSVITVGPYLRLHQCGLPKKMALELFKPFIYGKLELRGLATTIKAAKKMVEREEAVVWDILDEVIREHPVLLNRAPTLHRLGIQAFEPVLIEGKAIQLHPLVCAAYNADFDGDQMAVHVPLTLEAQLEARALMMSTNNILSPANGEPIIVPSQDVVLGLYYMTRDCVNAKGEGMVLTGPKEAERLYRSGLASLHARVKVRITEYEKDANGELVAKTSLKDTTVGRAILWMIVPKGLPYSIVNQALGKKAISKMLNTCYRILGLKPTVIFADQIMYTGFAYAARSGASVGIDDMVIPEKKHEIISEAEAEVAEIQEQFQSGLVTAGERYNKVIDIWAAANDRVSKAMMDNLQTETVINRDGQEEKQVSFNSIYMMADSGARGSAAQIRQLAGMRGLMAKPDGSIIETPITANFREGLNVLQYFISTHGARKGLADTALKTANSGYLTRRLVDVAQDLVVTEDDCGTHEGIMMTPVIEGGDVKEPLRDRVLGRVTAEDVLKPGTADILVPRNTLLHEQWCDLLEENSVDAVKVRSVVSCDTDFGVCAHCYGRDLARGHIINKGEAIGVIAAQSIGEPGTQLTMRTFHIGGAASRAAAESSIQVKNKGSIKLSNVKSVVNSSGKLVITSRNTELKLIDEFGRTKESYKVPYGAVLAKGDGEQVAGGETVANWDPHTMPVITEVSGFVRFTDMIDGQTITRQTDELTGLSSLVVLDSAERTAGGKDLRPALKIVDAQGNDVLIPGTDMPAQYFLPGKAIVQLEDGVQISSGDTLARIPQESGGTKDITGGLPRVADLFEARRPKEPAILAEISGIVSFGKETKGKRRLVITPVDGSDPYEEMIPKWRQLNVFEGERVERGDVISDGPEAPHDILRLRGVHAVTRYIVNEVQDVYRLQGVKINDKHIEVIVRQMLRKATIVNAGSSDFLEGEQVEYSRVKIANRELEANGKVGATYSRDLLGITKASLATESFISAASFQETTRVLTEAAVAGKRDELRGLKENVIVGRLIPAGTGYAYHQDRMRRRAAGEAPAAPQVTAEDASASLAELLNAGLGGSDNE
T1 sequence (P0A8V2 whole entry): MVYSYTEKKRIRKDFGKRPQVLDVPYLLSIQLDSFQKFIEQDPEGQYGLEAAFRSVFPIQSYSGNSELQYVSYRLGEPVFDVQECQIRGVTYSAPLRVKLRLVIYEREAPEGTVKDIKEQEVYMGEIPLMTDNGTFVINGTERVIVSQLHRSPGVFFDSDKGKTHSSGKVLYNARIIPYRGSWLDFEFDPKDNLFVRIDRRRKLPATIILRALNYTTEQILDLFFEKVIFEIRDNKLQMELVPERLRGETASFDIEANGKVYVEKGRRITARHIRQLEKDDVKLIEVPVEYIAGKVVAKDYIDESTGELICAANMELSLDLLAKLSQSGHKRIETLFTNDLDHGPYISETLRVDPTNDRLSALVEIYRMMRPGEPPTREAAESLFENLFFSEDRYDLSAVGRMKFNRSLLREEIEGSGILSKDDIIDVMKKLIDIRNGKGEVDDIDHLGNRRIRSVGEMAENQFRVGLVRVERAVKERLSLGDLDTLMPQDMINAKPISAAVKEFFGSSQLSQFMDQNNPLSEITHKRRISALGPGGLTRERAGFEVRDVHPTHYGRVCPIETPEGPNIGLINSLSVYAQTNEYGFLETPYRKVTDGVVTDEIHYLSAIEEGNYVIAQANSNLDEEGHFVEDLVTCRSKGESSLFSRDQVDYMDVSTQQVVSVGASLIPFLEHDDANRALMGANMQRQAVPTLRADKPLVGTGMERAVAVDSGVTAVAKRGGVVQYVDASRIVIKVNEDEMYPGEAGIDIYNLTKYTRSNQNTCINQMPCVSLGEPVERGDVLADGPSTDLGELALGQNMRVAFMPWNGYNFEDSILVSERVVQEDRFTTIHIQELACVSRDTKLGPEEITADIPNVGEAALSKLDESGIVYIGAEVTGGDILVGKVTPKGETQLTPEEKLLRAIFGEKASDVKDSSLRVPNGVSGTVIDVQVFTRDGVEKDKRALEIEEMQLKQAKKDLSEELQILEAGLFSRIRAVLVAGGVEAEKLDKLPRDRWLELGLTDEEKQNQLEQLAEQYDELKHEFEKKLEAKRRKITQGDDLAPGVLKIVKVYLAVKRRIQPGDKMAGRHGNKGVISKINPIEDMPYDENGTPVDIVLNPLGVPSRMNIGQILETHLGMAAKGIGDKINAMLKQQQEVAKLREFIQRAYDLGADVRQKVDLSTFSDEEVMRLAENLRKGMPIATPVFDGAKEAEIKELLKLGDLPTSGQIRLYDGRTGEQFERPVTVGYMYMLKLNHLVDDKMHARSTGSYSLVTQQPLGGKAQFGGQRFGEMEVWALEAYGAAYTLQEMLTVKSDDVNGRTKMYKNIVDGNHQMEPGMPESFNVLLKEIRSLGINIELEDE
T1 sequence (P0A7Z4 whole entry): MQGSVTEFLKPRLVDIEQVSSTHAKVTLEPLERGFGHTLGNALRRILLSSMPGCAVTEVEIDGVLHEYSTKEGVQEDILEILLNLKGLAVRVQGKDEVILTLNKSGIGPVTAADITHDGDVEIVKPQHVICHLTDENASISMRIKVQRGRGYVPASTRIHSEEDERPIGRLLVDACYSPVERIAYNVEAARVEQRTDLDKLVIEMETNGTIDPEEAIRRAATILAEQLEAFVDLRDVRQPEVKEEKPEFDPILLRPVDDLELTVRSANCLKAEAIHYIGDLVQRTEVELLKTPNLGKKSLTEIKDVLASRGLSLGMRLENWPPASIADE

SMILES | inhibition of the bond between σ^70 and the RNA polymerase (in words) [1] | diameter of inhibition, K12 ([2]; 500 μg/ml) | diameter of inhibition, S aureus ([3]; 500 μg/ml) | diameter of inhibition, S epidermidis ([4]; 500 μg/ml) | further results
COc1ccc(-c2ccc(/C=C/C(=O)c3cc4ccccc4o3)o2)cc1 [compound 5,858,445] | most active | negative | 4.2 mm | 4.2 mm | 
CN[C@H](CC(C)C)C(=O)N[C@H]1C(=O)N[C@@H](CC(N)=O)C(=O)N[C@H]2C(=O)N[C@H]3C(=O)N[C@H](C(=O)N[C@H](C(=O)O)c4cc(O)cc(O)c4-c4cc3ccc4O)[C@H](O)c3ccc(c(Cl)c3)Oc3cc2cc(c3O[C@@H]2O[C@H](CO)[C@@H](O)[C@H](O)[C@H]2O[C@H]2C[C@](C)(N)[C@H](O)[C@H](C)O2)Oc2ccc(cc2Cl)[C@H]1O [vancomycin, reference compound] |  |  |  |  | diameter of inhibition, K12 ([2]; 50 μg/ml): negative; diameter of inhibition, S aureus ([3]; 50 μg/ml): 5 mm; diameter of inhibition, S epidermidis ([4]; 50 μg/ml): 5 mm
Cc1ccc(C)n1-c1ccc(OCC(=O)O)cc1 [compound 5,988,031] | most active; also recorded: inhibits |  |  |  | IC50 ([1]; FIG. 1, σ^70 adsorbed on plate, core enzyme, antibody 11D11-peroxidase, read-out: concentration giving 50% inhibition of the bond between σ^70 and the RNA polymerase (converted)): ~20.4 µM; inhibition of the bond between NusA and the RNA polymerase (in words) [5]: inhibits; inhibition of the bond between an antibody (11D11) and the RNA polymerase (in words) [6]: not; inhibition of the assembly of the α, β and β′ subunits (in words) [7]: not; inhibition of the growth of E. coli TG1 cells (in words) [8]: inhibits; activity on E. coli K12 (in words) [2, 10]: not active; activity on S. aureus (in words) [3, 10]: not active; activity on M. Luteus (in words) [9]: not active
O=C(/C=C/c1ccc(-c2cccc([N+](=O)[O-])c2)o1)c1cc2ccccc2o1 [5,768,818] |  | negative | negative | negative | 
O=C(/C=C/c1ccc(-c2ccc([N+](=O)[O-])cc2)o1)c1cc2ccccc2o1 [5,761,890] |  | negative | negative | negative | 
